Experiments:
Type in all cases: biochemical
[1] = tested on: wild catalase in de-inking white water; assay: Filter paper float test of catalase de-activation using de-inking white water
Experimental: (§1) A filter paper float test was carried out to study catalase deactivation performance of aldehyde-functional polymers and a conventional catalase inhibitor on bleached paper. In a typical float test, a one-inch square piece of filter paper was saturated with 50% H2O2 solution. With excess H2O2 solution being removed, the treated filter paper was submerged in 200 mL aqueous catalase solution or 200 mL de-inking white water. The catalase solution was prepared by diluting a commercial catalase solution with either distilled water or papermaking white water. Various amounts of the catalase inhibitors being studied were mixed with the catalase solution or de-inking white water for five minutes before the treated filter paper was submerged in the catalase solution or de-inking white paper. Controls also were carried out in which no catalase inhibitor was added to the catalase solution or de-inking paper before the treated filter was submerged therein. The time that was required for the filter paper to rise to the solution surface was recorded and used to determine H2O2 decomposition rate. A longer time for the filter paper to rise to the surface indicated a slower H2O2 decomposition rate.
As an initial observation made with respect to the controls that contained no catalase inhibitor, a significant difference was observed between the papermaking and de-inking sources of white water with respect to wild catalase content. […] The presence of wild catalase in the de-inking white water was confirmed by the float tests. It only took about 40 seconds for the peroxide-treated filter paper to rise to the surface of the de-inking white water that had not been treated with catalase inhibitor (e.g., see Control A, Table 4 below).
Float tests were also carried out with the de-inking white water obtained from a papermaking mill. Various amounts of the catalase inhibitors being studied for this example were mixed with the de-inking white water for five minutes before the treated filter paper was submerged in the de-inking white water. […]

[2] = tested on: commercial catalase TERMINOX® Ultra 50L; assay: Filter paper float test of catalase de-activation using distilled water; details: for Float time: 20 μL catalase/1000 mL distilled water, no-inhibitor float time 75 sec
Experimental: as §1
Catalase de-activation performance of a glyoxalated polyacrylamide (G-PAM) and glutaraldehyde was tested with the filter paper float test using distilled water. As indicated, in a typical test, a square piece of filter was first saturated with 50% H2O2 solution. Various amounts of the two types of catalase inhibitors being studied in this example were mixed with the catalase solution prepared with distilled water for five minutes before the treated filter paper was submerged in the catalase solution. Once the treated filter paper was submerged in catalase solution, catalase started decomposing H2O2 molecules, releasing O2 gas. The faster the H2O2 decomposition rate, the faster the O2 gas being generated, and the shorter the time required for the filter paper to rise to the solution surface. On the other hand, the presence of catalase inhibition will slow down the H2O2 decomposition rate, resulting in longer periods of time for the filter paper to rise to the surface.
Table 1 presents the results of the float tests conducted with 20 μL commercial catalase TERMINOX® Ultra 50L diluted by 1000 mL distilled water to prepare the catalase solution. As indicated, glutaraldehyde and glyoxalated polyacrylamide were studied as the catalytic inhibitors. Glutaraldehyde was chosen as a control for this example. Large quantities of glutaraldehyde are commercially used as a catalase inhibitor. BUBOND® 387 was the source of the glyoxalated polyacrylamide.

[3] = tested on: commercial catalase TERMINOX® Ultra 50L; assay: Filter paper float test of catalase de-activation using papermaking white water; details: 500 ppm inhibitor
Experimental: as §1
To test the effect of dissolved and colloidal substances on catalase inhibitors, float tests were also carried out with the white water obtained from a newsprint papermaking mill. […]

Float time ([1]; Dosage 2000 ppm, de-inking white water, no-inhibitor Control A 39 sec): 68 s
Float time ([2]; 50 ppm inhibitor): 80 s
Float time ([2]; 100 ppm inhibitor): 72 s
Float time ([2]; 150 ppm inhibitor): 88 s
Float time ([2]; 200 ppm inhibitor): 103 s
Float time ([2]; 300 ppm inhibitor): 117 s
Float time ([2]; 500 ppm inhibitor): 128 s
filter paper float time ([2]; below 100 ppm inhibitor, distilled water catalase solution): around 75 seconds
Float time ([3]; 10 μL catalase/1000 mL papermaking white water, no-inhibitor float time 197 sec): 301 s
Float time ([3]; 20 μL catalase/1000 mL papermaking white water, no-inhibitor float time 67 sec): 130 s
Compound: O=CCCCC=O [Glutaraldehyde]
Float time ([1]; Dosage 2000 ppm, de-inking white water pre-treated with 1000 ppm BUSAN® 1078 bactericide for 30 minutes, no-inhibitor Control B 35 sec): 40 s
Float time ([1]; Dosage 4000 ppm, de-inking white water pre-treated with 1000 ppm BUSAN® 1078 bactericide for 30 minutes, no-inhibitor Control B 35 sec): 37 s

— patent US20100126680A1, “Method For Controlling Enzymatic Decomposition Of Peroxide and Products Thereof” (BUCKMAN LABORATORIES INTERNATIONAL, INC., priority 2008, published 2010)
